Measurements taken from publication PMC8233204, “Cardiac myosin-binding protein C interaction with actin is inhibited by compounds identified in a high-throughput fluorescence lifetime screen” (The Journal of Biological Chemistry, 2021).
“Also recorded” adds a separate entry of the source. Where two headings read alike, the source gives them in different places.

Experiments:
C0-C2 = molecular target: T1, C0-C2 (Homo sapiens, UniProt Q14896); assay: Visible light scattering (C0-C2 aggregation); conditions: 2 or 10 μM C0-C2 mixed with compound for 20 min
T1 construct: N-terminal domains C0 through C2 (C0-C2), containing the proline/alanine-rich linker (P/A) and the M-domain (M); 6x His (N, cleaved yes); TEV protease cleavage site (N, cleaved yes); made in house; host or cells: E. coli BL21DE3
Procedure: All three drugs were tested for causing C0-C2 to aggregate by measuring absorbance in the visible range beyond the absorption of protein or the drugs themselves. Observed absorbance in these wavelengths is actually loss of transmitted light due to light scattering from aggregated C0-C2. 2 or 10 μM of C0-C2 was mixed with 20 μM of suramin, NF023, or ATA for 20 min and wavelengths 250–600 nm were scanned using a Beckman Coulter DU730 UV/Vis Spectrophotometer to determine optical density. The same was done with 2 or 10 μM of C0-C2 and 20 μM of suramin, NF023, or ATA alone.

AF568-actin = molecular target: T2, AF568-actin (Oryctolagus cuniculus, UniProt P68135); assay: TR-F high-throughput screen, AF568-actin alone (no C0-C2); format: binding, rabbit; conditions: 10 μM compound; 1 μM AF568-actin alone
T2 construct: Actin was prepared from rabbit skeletal muscle by extracting acetone powder; from tissue; host or cells: rabbit skeletal muscle (acetone powder)
Procedure: (§1) The 1280 LOPAC compounds were received in 96-well plates (LOPAC^1280, Sigma-Aldrich) and were reformatted into 1536-well flat, black-bottom polypropylene plates (Greiner Bio-One). In total, 50 nl of compounds was dispensed using an automated Echo 550 acoustic liquid dispenser (Labcyte). LOPAC compounds were formatted into plates, with the first two and last two columns loaded with 50 nl of DMSO and used for compound-free controls. The final concentration of the compounds was 10 μM. These assay plates were then heat-sealed using a PlateLoc Thermal Microplate Sealer (Agilent Technologies) and stored at –20 °C. Before screening, compound plates were equilibrated to room temperature (25 °C). In total, 1 μM AF568-labeled actin without or with 2 μM C0-C2 in M-ABB was dispensed by a Multidrop Combi Reagent Dispenser (Thermo Fisher Scientific) into the 1536-well assay plates containing the compounds. Plates were incubated at room temperature for 20 min before recording the data with the FLTPR. Plates were rescanned after 120 min incubation.
(§2) Two full screens were done using different batches of AF568-labeled actin, C0-C2, and test compounds.
(§3) Following data acquisition, TR-F waveforms observed for each well were convolved with the IRF to determine the lifetime (τ) (Equation 1) by fitting to a single-exponential decay ([15], [35]).
(§4) A compound was considered a Hit if it was in the top 25 compounds in each of two independent screenings of the LOPAC. Top compounds were those that increased the lifetime of AF568-actin when C0-C2 was present (indicating inhibition of C0-C2 binding). Compounds that altered AF568-actin lifetime when C0-C2 was not present by >4 SD relative to that of the control samples (those exposed to 0.1% DMSO) were first removed from the analysis. […] Any change in lifetime induced by a compound on AF568-actin alone was then subtracted from the effect of the compound on AF568-actin when C0-C2 was present. The resulting C0-C2-dependent change for all compounds was ranked.

[1] = molecular target: AF568-actin:phosphorylated (by PKA) C0-C2 (Homo sapiens, UniProt Q14896); assay: TR-F concentration-response assay, AF568-actin with PKA-phosphorylated C0-C2; conditions: for TR-F+PKA n: 3 μM phosphorylated C0-C2, n not defined in table
Procedure: (§5) Using the same conditions as in the primary screen, we determined the concentration dependence of each of the three Hit compounds on the AF568-actin lifetime effects. […] In a separate dose–response assay utilizing 3 μM C0-C2, we compared the effects of the compounds on nonphosphorylated and phosphorylated C0-C2. […] In the second dose-response assay, 3 μM instead of 2 μM C0-C2 was used in the second dose–response assay so that effects of compounds on phosphorylated C0-C2 could be readily detected, as phosphorylation of C0-C2 itself (in the absence of compounds) reduces binding to actin.
C0-C2 was treated with 7.5 ng PKA/μg C0-C2 at 30 °C for 30 min.
The Hit compounds were dissolved in DMSO to make a 10 mM stock solution, which was serially diluted in 96-well mother plates. Hits were screened at eight concentrations (0.5–100 μM). Compounds (1 μl) were transferred from the mother plates into 384-well plates using a Mosquito HV liquid handler (TTP Labtech Ltd). The same procedure of dispensing as for the pilot screening was applied in the TR-F concentration–response assays.

[2] = molecular target: C0-C2 portion of human cMyBP-C (Homo sapiens, UniProt Q14896); assay: Isothermal titration calorimetry (ITC) of compounds binding to C0-C2; conditions: for ITC ΔS / ITC ΔH / ITC ΔG: Table 1 average; for ITC ΔS: no unit in table (Fig. 4: J/mol•K); for ITC ΔH: no unit in table (Fig. 4: kJ/mol); for ITC ΔG: unit not given; for ITC n (stoichiometry, compound per C0-C2): average of two preparations
[3] = molecular target: T3, FMAL-actin:TMR-C0-C2^Cys225 (Homo sapiens, UniProt Q14896, C239L/C249S/C426T/C436V/C443S/H225C); assay: FMAL-actin-TMR-C0-C2 TR-FRET binding assay; conditions: 20 μM compound; 1 μM FMAL-actin, 2 μM TMR-C0-C2; both nonphosphorylated and phosphorylated C0-C2
T3 construct: N-terminal domains C0 through C2 (C0-C2), containing the proline/alanine-rich linker (P/A) and the M-domain (M); 6x His (N, cleaved yes); TEV protease cleavage site (N, cleaved yes); made in house; host or cells: E. coli BL21DE3 (C0-C2^Cys225); actin purified from rabbit skeletal muscle
Procedure: In total, 1 μM F-Actin labeled (to 10%) on Cys-374 with FMAL (donor fluor) was incubated with increasing concentrations (0–20 μM) of C0-C2^Cys225 unlabeled (for donor only (D) data acquisition) or labeled to 95% with TMR (acceptor fluor) (for donor–acceptor (DA) data). Lifetimes of FMAL-actin were determined for D and DA at each concentration of C0-C2^Cys225. TR-FRET efficiency (1 – (τDA/τD)) was determined for each C0-C2^Cys225 concentration. The binding curve was generated from data from two separate preparations of actin and C0-C2^Cys225. Testing of compound effects by TR-FRET was similarly done at 1 μM FMAL-actin with unlabeled C0-C2^Cys225 (D) and TMR-C0-C2^Cys225 (DA), both at 2 μM.

[4] = molecular target: T4, AF568-actin:C0-C2 (actin-cMyBP-C binding) (Homo sapiens, UniProt Q14896); assay: TR-F concentration-response assay, AF568-actin with C0-C2; conditions: 2 μM C0-C2; for EC50: 1 μM AF568-actin, mean ± SE; for TR-F n: n not defined in table
Procedure: as §5
The Hit compounds were dissolved in DMSO to make a 10 mM stock solution, which was serially diluted in 96-well mother plates. Hits were screened at eight concentrations (0.5–100 μM). Compounds (1 μl) were transferred from the mother plates into 384-well plates using a Mosquito HV liquid handler (TTP Labtech Ltd). The same procedure of dispensing as for the pilot screening was applied in the TR-F concentration–response assays. Concentration dependence of the TR-F change was fitted using the Hill equation ([38]):(3) τ=τo+τmaxC^α/EC50α+C^α where τ and τ0 are TR-F in the presence and in the absence of the compound, τmax is the maximum effect, C is the compound concentration, EC50 is the compound concentration for which 50% of maximum effect is obtained, and α is the Hill coefficient of sigmoidicity.

F-actin = molecular target: T5, F-actin (Oryctolagus cuniculus, UniProt P68135); assay: ITC of compounds with actin alone; format: binding, rabbit; conditions: for ITC interaction with F-actin (in words): actin alone
T5 construct: Actin was prepared from rabbit skeletal muscle by extracting acetone powder; from tissue; host or cells: rabbit skeletal muscle (acetone powder)
Procedure: The titration of compounds binding to cMyBP-C was performed on an Affinity ITC (TA Instruments). Each compound in M-ABB buffer (2000–3000 μM) was titrated into C0-C2 in M-ABB buffer (100 μM, 350 μl). For the titration, a preliminary 2.5-μl injection (ignored in data analysis) was followed by 19–39 subsequent 2.5-μl injections with 4 min waits between each injection. The reference cell was filled with distilled water. To account for heat changes of dilution and mechanical mixing, binding data were corrected by subtraction of the final plateau injection values (when binding is complete) prior to curve fitting. Corrected binding data was processed using the NanoAnalyze analysis software (TA Instruments).
Figure S2. ITC of Suramin binding to actin alone. (A) Titration of 100 µM F-actin (in 350 µl) with 40 2.5
µl injections of 3,000 µM Suramin. (B) Fitted ITC binding curve for Suramin binding. Binding to actin was
for Suramin with actin alone (Kd ~200 µM).
(1 picture or pasted object on this page, not shown here)

[5] = molecular target: T4, AF568-actin:C0-C2 (actin-cMyBP-C binding); assay: TR-F high-throughput screen of LOPAC library, AF568-actin with C0-C2; conditions: for Actin-MyBP-C Drug Δτ, Screen 1 / Actin-MyBP-C Drug Δτ, Screen 2 / Actin-MyBP-C Drug Δτ, Sub-optimal Screen 3 / Actin-MyBP-C Drug Δτ, Sub-optimal Screen 4 / average change in lifetime, SD above the median of all compounds not excluded: 10 μM compound, 1 μM AF568-actin, 2 μM C0-C2; for average change in lifetime, SD above the median of all compounds not excluded: average of screens; for Difference, Screen 1 / Difference, Screen 2 / Difference, Sub-optimal Screen 3 / Difference, Sub-optimal Screen 4: Δτ actin+C0-C2 after subtracting effect on actin alone
Procedure: as §1, §2, §3, §4

[6] = compound binding to C0-C2, mean ± SE, two protein preparations, read-out: ITC Kd
[7] = single titration shown in Fig. 4
[8] = single titration shown in Fig. 4, 100 μM C0-C2, read-out: ITC Kd (fitted curve of Figure 4)

T3 sequence (Q14896 1-451 H225C/C239L/C249S/C426T/C436V/C443S limits assumed): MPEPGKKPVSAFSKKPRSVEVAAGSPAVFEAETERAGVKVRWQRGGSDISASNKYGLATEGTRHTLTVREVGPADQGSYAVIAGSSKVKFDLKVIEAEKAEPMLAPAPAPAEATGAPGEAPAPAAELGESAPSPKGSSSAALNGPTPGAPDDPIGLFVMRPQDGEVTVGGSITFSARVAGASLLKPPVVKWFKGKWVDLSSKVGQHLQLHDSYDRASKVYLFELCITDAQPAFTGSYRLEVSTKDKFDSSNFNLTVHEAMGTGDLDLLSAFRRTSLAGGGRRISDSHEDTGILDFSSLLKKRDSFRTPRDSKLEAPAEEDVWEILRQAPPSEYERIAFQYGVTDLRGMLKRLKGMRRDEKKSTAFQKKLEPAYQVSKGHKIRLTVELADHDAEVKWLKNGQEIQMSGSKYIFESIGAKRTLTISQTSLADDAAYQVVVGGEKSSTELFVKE
Chain of AF568-actin:phosphorylated (by PKA) C0-C2 (Q14896 1-451 limits assumed): as the sequence (Q14896 1-451 H225C/C239L/C249S/C426T/C436V/C443S limits assumed) above, with C225H, L239C, S249C, T426C, V436C, S443C counted along it
T4 sequence (Q14896 1-451 limits assumed): as the sequence (Q14896 1-451 H225C/C239L/C249S/C426T/C436V/C443S limits assumed) above, with C225H, L239C, S249C, T426C, V436C, S443C counted along it
Chain of C0-C2 portion of human cMyBP-C (Q14896 1-451 limits assumed): as the sequence (Q14896 1-451 H225C/C239L/C249S/C426T/C436V/C443S limits assumed) above, with C225H, L239C, S249C, T426C, V436C, S443C counted along it
T1 sequence (Q14896 1-451 limits assumed): as the sequence (Q14896 1-451 H225C/C239L/C249S/C426T/C436V/C443S limits assumed) above, with C225H, L239C, S249C, T426C, V436C, S443C counted along it

Structure (SMILES) | absorbance in the visible range (light scatter, C0-C2 aggregation) (C0-C2) | Actin Drug Δτ, Screen 1 (AF568-actin) [ns] | Actin Drug Δτ, Screen 2 (AF568-actin) [ns] | Actin Drug Δτ, Sub-optimal Screen 3 (AF568-actin) [ns] | Actin Drug Δτ, Sub-optimal Screen 4 (AF568-actin) [ns] | EC50 [1] [µM] | TR-F+PKA n [1] | ITC ΔS [2] | ITC ΔH [2] | ITC ΔG [2] | ITC n (stoichiometry, compound per C0-C2) [2] | Kd [2, 6] [µM] | ITC n (fitted curve of Figure 4) [2, 7] | ITC ΔH (fitted curve of Figure 4) [2, 7] [kcal/mol] | ITC ΔS (fitted curve of Figure 4) [2, 7] [J/mol•K] | Kd [2, 8] [µM] | TR-FRET measured binding of C0-C2 to actin, effect of compound [3] | EC50 [4] [µM] | TR-F n [4] | ITC interaction with F-actin (in words) (F-actin) | further results
Cc1ccc(C(=O)Nc2ccc(S(=O)(=O)O)c3cc(S(=O)(=O)O)cc(S(=O)(=O)O)c23)cc1NC(=O)c1cccc(NC(=O)Nc2cccc(C(=O)Nc3cc(C(=O)Nc4ccc(S(=O)(=O)O)c5cc(S(=O)(=O)O)cc(S(=O)(=O)O)c45)ccc3C)c2)c1 [Suramin, suramin] | did not detect absorption | -0.03 | 0.00 | -0.03 | 0.04 | 4.8 ± 1.2 | 1.2 | 32.3 | −17.4 | −26.8 | 3.4 | 16.6 ± 1 | 3.9 | -4.25 | 30.2 | 17.6 | almost completely eliminated | 5.9 ± 1.2 | 3.6 | weak interaction | Kd (F-actin): ~200 µM; Actin-MyBP-C Drug Δτ, Screen 1 [5]: 0.088 ns; Actin-MyBP-C Drug Δτ, Screen 2 [5]: 0.15 ns; Actin-MyBP-C Drug Δτ, Sub-optimal Screen 3 [5]: 0.18 ns; Actin-MyBP-C Drug Δτ, Sub-optimal Screen 4 [5]: 0.13 ns; average change in lifetime, SD above the median of all compounds not excluded [5]: 6.5 SD; Difference, Screen 1 [5]: 0.12 ns; Difference, Screen 2 [5]: 0.16 ns; Difference, Sub-optimal Screen 3 [5]: 0.21 ns; Difference, Sub-optimal Screen 4 [5]: 0.09 ns
O=C(O)C1=CC(=C(c2ccc(O)c(C(=O)O)c2)c2ccc(O)c(C(=O)O)c2)C=CC1=O [ATA, aurintricarboxylic acid] | detected absorption | -0.04 | 0.00 | -0.03 | 0.00 | 4.3 ± 0.9 | 1.4 | 52.9 | −10.2 | −25.8 | 3.1 | 25.9 ± 2.2 | 2.1 | -2.49 | 51.5 | 28.1 | almost completely eliminated; also recorded: near zero | 7.9 ± 1.9 | 3.4 | not apparent; also recorded: no interaction | Actin-MyBP-C Drug Δτ, Screen 1 [5]: 0.008 ns; Actin-MyBP-C Drug Δτ, Screen 2 [5]: 0.06 ns; Actin-MyBP-C Drug Δτ, Sub-optimal Screen 3 [5]: 0.07 ns; Actin-MyBP-C Drug Δτ, Sub-optimal Screen 4 [5]: 0.07 ns; average change in lifetime, SD above the median of all compounds not excluded [5]: 3.0 SD; Difference, Screen 1 [5]: 0.04 ns; Difference, Screen 2 [5]: 0.06 ns; Difference, Sub-optimal Screen 3 [5]: 0.10 ns; Difference, Sub-optimal Screen 4 [5]: 0.07 ns
